According to ChEMBL document CHEMBL5143693, “Design and synthesis of endocannabinoid enzyme inhibitors for ocular indications” (Bioorg Med Chem Lett, 2022):
Calls of active or inactive are those of the source. The calls are words filed in the database; no cut-off is given here.

Tests used:
[1] = Permeability of the compound by measuring lambda maximum incubated for 18 hrs by PAMPA method; assay type: ADME; conditions: read-out: permeability
[2] = molecular target: T1, Fatty-acid amide hydrolase 1 (Homo sapiens, UniProt O00519); assay: Inhibition of FAAH (unknown origin) by fluorescence based method
T1 sequence (O00519 whole entry): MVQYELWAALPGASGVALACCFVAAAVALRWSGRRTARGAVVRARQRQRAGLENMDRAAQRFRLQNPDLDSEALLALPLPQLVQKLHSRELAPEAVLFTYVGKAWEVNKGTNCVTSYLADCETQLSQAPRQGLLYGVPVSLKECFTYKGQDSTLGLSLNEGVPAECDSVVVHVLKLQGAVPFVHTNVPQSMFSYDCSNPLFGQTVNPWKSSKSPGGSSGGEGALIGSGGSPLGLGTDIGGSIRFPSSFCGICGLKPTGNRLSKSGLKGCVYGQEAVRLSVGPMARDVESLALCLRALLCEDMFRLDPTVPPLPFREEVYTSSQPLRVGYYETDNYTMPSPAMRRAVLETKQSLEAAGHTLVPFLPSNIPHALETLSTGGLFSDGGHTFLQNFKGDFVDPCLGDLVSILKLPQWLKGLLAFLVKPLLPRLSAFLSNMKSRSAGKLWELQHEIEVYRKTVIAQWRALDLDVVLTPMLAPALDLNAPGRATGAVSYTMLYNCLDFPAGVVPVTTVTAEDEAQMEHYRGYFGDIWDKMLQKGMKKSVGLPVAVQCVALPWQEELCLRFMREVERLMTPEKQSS

Monoglyceride lipase = molecular target: T2, Monoglyceride lipase (Homo sapiens, UniProt Q99685); assay: Inhibition of MAGL (unknown origin) by fluorescence based method
T2 sequence (Q99685 whole entry): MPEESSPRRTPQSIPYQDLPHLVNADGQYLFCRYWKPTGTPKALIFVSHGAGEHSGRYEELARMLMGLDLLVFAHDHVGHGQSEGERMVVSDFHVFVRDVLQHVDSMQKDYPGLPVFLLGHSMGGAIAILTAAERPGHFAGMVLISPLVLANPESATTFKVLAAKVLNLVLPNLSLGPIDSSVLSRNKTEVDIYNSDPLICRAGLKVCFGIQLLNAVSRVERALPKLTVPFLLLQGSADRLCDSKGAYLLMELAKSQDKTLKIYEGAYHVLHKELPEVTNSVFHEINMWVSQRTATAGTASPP

[3] = molecular target: T3, Monoglyceride lipase (Homo sapiens) (UniProt Q99685); assay: Inhibition of recombinant human MAGL assessed as blockage of […] labelling at 100 uM by ABPP assay
T3 sequence (whole entry): T2 sequence (Q99685 whole entry)

[4] = molecular target: T4, Monoglyceride lipase (Rattus norvegicus) (UniProt Q8R431); assay: Inhibition of MAGL in rat eye homogenate assessed as blockage of […] labelling by ABPP assay; assay type: tissue-based
T4 sequence (whole entry): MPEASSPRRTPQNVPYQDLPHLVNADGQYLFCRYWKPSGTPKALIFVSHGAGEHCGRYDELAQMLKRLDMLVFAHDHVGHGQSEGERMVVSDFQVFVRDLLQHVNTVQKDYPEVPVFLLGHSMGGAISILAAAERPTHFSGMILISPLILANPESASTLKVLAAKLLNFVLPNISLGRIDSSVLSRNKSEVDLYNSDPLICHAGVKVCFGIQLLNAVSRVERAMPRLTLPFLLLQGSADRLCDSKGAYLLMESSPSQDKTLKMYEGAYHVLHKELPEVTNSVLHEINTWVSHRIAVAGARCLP

[5] = molecular target: T5, Fatty-acid amide hydrolase 1 (Mus musculus, UniProt O08914); assay: Inhibition of mouse brain FAAH by competitive ABPP assay; assay type: tissue-based
T5 sequence (O08914 whole entry): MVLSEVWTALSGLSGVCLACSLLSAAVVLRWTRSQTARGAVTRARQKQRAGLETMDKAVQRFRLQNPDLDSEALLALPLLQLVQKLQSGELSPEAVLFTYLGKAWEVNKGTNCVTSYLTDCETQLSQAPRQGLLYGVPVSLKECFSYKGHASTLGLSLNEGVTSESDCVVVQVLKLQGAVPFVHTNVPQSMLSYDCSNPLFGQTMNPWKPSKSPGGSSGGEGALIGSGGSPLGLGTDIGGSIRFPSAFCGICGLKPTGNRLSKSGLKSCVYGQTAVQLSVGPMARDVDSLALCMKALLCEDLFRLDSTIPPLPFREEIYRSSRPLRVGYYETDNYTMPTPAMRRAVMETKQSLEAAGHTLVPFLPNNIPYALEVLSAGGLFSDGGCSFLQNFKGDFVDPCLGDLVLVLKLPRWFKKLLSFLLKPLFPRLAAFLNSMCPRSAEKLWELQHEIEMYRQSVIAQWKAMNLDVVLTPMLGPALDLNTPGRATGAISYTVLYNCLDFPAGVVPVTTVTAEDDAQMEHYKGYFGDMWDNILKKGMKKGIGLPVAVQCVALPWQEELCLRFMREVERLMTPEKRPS

[6] = molecular target: T6, Fatty-acid amide hydrolase 1 (Homo sapiens) (UniProt O00519); assay: Inhibition of recombinant human FAAH assessed as blockage of […] labelling at 100 uM by ABPP assay
T6 sequence (whole entry): T1 sequence (O00519 whole entry)

[7] = molecular target: T7, Fatty-acid amide hydrolase 1 (Rattus norvegicus) (UniProt P97612); assay: Inhibition of FAAH in rat eye homogenate assessed as blockage of […] labelling by ABPP assay; assay type: tissue-based
T7 sequence (whole entry): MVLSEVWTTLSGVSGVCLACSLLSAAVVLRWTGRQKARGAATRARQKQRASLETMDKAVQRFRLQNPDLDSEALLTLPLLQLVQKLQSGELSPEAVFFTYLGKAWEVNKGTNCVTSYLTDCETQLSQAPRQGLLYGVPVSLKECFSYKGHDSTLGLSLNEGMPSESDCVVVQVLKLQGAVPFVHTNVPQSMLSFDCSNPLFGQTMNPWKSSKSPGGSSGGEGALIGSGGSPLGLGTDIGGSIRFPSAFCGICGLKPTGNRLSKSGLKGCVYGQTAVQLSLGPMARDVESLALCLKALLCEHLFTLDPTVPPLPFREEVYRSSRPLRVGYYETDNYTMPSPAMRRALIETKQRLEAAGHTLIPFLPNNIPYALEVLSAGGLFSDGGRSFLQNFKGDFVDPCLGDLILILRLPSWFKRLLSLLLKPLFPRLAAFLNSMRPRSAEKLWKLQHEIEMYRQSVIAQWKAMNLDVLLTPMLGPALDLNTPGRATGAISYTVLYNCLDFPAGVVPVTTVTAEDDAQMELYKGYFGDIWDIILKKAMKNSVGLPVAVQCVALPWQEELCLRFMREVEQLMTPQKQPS

**Q.** For O=C(Oc1ccc([N+](=O)[O-])cc1)N1CCN(S(=O)(=O)c2ccc(Oc3ccccc3)cc2)CC1, which Papp at 18 h [1] is on record?
**A.** 0.23 ×10⁻⁶ cm/s

**Q.** And the IC50 [2]?
**A.** 322 nM

**Q.** For O=C(Oc1ccc([N+](=O)[O-])cc1)N1CCN(S(=O)(=O)c2ccc(Oc3ccc(Cl)c(Cl)c3)cc2)CC1, which Papp at 18 h [1] is on record?
**A.** 0.31 ×10⁻⁶ cm/s

**Q.** And the IC50 [2]?
**A.** 317 nM

**Q.** Which results are given for O=C(Oc1ccc([N+](=O)[O-])cc1)N1CCN(S(=O)(=O)c2ccc(Oc3ccccc3Cl)cc2)CC1?
**A.** Papp at 18 h [1]: 0.27 ×10⁻⁶ cm/s; IC50 [2]: 1150 nM

**Q.** With O=C(Oc1ccc([N+](=O)[O-])cc1)N1CCN(S(=O)(=O)c2ccc(Oc3ccc(Cl)cc3)cc2)CC1 as the molecule, how does the Papp at 18 h [1] read?
**A.** 0.24 ×10⁻⁶ cm/s

**Q.** And the IC50 [2]?
**A.** 153 nM

**Q.** And the IC50 (Monoglyceride lipase)?
**A.** 2060 nM

**Q.** For O=C(Oc1ccc([N+](=O)[O-])cc1)N1CCN(S(=O)(=O)c2ccc(-c3ccccc3)cc2)CC1, which Papp at 18 h [1] is on record?
**A.** 0.19 ×10⁻⁶ cm/s

**Q.** And the IC50 [2]?
**A.** 437 nM

**Q.** With O=C(Oc1ccc([N+](=O)[O-])cc1)N1CCN(S(=O)(=O)c2ccc(C3CCCCC3)cc2)CC1 as the molecule, how does the Papp at 18 h [1] read?
**A.** 0.24 ×10⁻⁶ cm/s

**Q.** What about the IC50 [2] of the same molecule?
**A.** 333 nM

**Q.** Which results are given for O=C(Oc1ccc([N+](=O)[O-])cc1)N1CCN(S(=O)(=O)c2ccc(-c3ccc(Cl)c(Cl)c3)cc2)CC1?
**A.** Papp at 18 h [1]: 0.28 ×10⁻⁶ cm/s; IC50 [2]: 382 nM

**Q.** Which Papp at 18 h [1] does the source give for O=C(Oc1ccc([N+](=O)[O-])cc1)N1CCN(S(=O)(=O)c2ccc(Oc3ncc(C(F)(F)F)cc3Cl)cc2)CC1 here?
**A.** 0.23 ×10⁻⁶ cm/s

**Q.** What about the IC50 [2] of the same molecule?
**A.** 2950 nM

**Q.** Which results are given for O=C(Oc1ccc([N+](=O)[O-])cc1)N1CCN(S(=O)(=O)c2ccc3ccccc3c2)CC1?
**A.** inhibition [3]: 100%; Papp at 18 h [1]: 0.26 ×10⁻⁶ cm/s; inhibition [4]: Active; IC50 [5]: 10.5 nM; IC50 (Monoglyceride lipase): 284 nM; inhibition [6]: 100%; inhibition [7]: Active

**Q.** With CCCCc1ccc(S(=O)(=O)N2CCN(C(=O)Oc3ccc([N+](=O)[O-])cc3)CC2)cc1 as the molecule, how does the inhibition [3] read?
**A.** Active

**Q.** And the Papp at 18 h [1]?
**A.** 0.26 ×10⁻⁶ cm/s

**Q.** What about the IC50 [2] of the same molecule?
**A.** 179 nM

**Q.** What about the inhibition [4] of the same molecule?
**A.** Active

**Q.** And the IC50 (Monoglyceride lipase)?
**A.** 759 nM

**Q.** And the inhibition [6]?
**A.** Active

**Q.** And the inhibition [7]?
**A.** Active

**Q.** What does the source list for O=C(Oc1ccc([N+](=O)[O-])cc1)N1CCN(S(=O)(=O)c2ccc(Oc3cccc(Cl)c3)cc2)CC1?
**A.** Papp at 18 h [1]: 0.23 ×10⁻⁶ cm/s; IC50 [2]: 380 nM
